Each block holds one compound with its values, some of them ahead of it.
Legend:
[1] = target: Citron Rho-interacting kinase (Homo sapiens) (UniProt O14578); settings: at 10 µM
[2] = test system: Platelet-derived growth factor receptor alpha (Homo sapiens), P16234 [D842V]; assay: (§1) Selectivity interaction (Kinase panel (Z-LYTE Assay)) EUB0001632a PDGFRA; settings: at 10 µM
[3] = test system: Platelet-derived growth factor receptor alpha (Homo sapiens), P16234 [T674I]; assay: as §1; settings: at 10 µM
[4] = test system: Platelet-derived growth factor receptor alpha (Homo sapiens), P16234 [V561D]; assay: as §1; settings: at 10 µM
[5] = target: Platelet-derived growth factor receptor alpha (Homo sapiens, UniProt P16234); assay: as §1; settings: at 10 µM
[6] = target: T1, SNF-related serine/threonine-protein kinase (Homo sapiens) (UniProt Q9NRH2); assay: Selectivity interaction (KinomeScan (DiscoverX)) EUB0000695a SNRK; settings: at 100 nM
T1 sequence (whole entry): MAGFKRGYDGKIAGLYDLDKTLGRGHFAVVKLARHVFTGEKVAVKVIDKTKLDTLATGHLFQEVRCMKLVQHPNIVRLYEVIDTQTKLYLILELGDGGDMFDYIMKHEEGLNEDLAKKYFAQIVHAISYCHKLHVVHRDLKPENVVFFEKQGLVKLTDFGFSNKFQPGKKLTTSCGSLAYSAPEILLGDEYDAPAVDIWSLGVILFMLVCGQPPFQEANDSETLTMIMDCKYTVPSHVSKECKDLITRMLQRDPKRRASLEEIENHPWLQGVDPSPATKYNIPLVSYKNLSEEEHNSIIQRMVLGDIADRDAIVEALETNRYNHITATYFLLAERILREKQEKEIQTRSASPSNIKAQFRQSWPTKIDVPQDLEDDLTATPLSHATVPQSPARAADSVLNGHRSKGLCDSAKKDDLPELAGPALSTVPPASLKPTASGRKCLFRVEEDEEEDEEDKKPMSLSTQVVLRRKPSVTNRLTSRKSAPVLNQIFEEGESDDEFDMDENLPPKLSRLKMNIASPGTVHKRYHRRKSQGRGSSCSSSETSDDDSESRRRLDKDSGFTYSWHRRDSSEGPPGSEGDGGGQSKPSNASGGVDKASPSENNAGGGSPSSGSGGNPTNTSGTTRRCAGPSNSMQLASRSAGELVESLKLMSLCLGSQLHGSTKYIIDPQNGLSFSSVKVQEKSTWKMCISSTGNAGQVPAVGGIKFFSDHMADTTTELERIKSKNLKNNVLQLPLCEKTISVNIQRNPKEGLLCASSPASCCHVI

[7] = target: T2, Inhibitor of nuclear factor kappa-B kinase subunit beta (Homo sapiens) (UniProt O14920); assay: Selectivity interaction (KinomeScan (DiscoverX)) EUB0000595a IKBKB; settings: at 10 µM
T2 sequence (whole entry): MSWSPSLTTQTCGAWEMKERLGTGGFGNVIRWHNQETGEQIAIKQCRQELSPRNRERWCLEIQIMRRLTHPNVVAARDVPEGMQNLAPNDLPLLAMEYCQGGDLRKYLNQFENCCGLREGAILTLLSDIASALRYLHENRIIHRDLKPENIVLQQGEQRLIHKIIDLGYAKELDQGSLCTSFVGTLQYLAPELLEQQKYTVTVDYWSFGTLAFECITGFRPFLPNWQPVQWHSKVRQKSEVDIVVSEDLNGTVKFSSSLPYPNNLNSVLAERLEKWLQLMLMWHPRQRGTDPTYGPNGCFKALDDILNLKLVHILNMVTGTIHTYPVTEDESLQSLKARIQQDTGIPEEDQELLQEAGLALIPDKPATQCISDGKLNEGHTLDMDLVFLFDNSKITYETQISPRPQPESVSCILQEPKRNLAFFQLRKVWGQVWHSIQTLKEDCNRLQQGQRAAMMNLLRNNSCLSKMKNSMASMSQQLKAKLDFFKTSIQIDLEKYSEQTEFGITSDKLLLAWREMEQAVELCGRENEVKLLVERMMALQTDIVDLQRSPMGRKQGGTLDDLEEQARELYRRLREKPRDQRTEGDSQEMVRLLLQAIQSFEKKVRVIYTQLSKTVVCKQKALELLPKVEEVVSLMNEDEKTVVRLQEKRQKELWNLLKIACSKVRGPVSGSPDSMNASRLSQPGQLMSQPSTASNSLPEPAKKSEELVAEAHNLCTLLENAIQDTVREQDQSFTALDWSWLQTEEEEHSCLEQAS

[8] = target: T3, Mitogen-activated protein kinase 13 (Homo sapiens) (UniProt O15264); assay: Selectivity interaction (KinomeScan (DiscoverX)) EUB0000092b MAPK13; settings: at 10 µM
T3 sequence (whole entry): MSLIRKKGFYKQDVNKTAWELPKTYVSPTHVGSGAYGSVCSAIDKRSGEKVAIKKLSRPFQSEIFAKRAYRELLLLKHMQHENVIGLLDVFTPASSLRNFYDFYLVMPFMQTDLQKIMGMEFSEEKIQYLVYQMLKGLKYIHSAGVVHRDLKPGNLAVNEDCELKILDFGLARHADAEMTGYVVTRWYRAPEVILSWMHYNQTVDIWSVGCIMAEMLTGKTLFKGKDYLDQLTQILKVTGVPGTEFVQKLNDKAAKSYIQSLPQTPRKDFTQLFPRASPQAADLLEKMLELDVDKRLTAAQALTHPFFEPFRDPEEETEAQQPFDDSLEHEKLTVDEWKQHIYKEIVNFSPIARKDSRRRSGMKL

[9] = target: Interleukin-1 receptor-associated kinase 1 (Homo sapiens) (UniProt P51617); assay: Selectivity interaction (KinomeScan (DiscoverX)) EUB0000655a IRAK1; settings: at 10 µM
[10] = target: T4, Mitogen-activated protein kinase kinase kinase 3 (Homo sapiens) (UniProt Q99759); assay: Selectivity interaction (KinomeScan (DiscoverX)) EUB0000655a MAP3K3; settings: at 10 µM
T4 sequence (whole entry): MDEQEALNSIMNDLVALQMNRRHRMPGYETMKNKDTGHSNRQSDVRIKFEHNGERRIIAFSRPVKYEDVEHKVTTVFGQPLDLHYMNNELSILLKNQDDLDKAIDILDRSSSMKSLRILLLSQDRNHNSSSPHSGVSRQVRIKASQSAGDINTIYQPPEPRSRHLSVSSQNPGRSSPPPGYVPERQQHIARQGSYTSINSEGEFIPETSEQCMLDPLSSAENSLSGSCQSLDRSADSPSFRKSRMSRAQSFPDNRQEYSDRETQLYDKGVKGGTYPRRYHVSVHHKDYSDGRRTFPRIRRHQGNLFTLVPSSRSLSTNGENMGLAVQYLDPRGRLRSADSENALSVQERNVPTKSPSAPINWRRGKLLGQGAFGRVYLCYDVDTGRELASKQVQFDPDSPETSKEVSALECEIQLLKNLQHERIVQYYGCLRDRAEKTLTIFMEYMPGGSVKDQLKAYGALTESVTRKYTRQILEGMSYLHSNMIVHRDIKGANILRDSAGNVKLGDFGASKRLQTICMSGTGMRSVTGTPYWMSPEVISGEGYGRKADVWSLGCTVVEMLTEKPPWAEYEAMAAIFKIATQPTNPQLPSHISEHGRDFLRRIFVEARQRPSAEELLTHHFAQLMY

Sequence of Citron Rho-interacting kinase (Homo sapiens) (O14578 whole entry): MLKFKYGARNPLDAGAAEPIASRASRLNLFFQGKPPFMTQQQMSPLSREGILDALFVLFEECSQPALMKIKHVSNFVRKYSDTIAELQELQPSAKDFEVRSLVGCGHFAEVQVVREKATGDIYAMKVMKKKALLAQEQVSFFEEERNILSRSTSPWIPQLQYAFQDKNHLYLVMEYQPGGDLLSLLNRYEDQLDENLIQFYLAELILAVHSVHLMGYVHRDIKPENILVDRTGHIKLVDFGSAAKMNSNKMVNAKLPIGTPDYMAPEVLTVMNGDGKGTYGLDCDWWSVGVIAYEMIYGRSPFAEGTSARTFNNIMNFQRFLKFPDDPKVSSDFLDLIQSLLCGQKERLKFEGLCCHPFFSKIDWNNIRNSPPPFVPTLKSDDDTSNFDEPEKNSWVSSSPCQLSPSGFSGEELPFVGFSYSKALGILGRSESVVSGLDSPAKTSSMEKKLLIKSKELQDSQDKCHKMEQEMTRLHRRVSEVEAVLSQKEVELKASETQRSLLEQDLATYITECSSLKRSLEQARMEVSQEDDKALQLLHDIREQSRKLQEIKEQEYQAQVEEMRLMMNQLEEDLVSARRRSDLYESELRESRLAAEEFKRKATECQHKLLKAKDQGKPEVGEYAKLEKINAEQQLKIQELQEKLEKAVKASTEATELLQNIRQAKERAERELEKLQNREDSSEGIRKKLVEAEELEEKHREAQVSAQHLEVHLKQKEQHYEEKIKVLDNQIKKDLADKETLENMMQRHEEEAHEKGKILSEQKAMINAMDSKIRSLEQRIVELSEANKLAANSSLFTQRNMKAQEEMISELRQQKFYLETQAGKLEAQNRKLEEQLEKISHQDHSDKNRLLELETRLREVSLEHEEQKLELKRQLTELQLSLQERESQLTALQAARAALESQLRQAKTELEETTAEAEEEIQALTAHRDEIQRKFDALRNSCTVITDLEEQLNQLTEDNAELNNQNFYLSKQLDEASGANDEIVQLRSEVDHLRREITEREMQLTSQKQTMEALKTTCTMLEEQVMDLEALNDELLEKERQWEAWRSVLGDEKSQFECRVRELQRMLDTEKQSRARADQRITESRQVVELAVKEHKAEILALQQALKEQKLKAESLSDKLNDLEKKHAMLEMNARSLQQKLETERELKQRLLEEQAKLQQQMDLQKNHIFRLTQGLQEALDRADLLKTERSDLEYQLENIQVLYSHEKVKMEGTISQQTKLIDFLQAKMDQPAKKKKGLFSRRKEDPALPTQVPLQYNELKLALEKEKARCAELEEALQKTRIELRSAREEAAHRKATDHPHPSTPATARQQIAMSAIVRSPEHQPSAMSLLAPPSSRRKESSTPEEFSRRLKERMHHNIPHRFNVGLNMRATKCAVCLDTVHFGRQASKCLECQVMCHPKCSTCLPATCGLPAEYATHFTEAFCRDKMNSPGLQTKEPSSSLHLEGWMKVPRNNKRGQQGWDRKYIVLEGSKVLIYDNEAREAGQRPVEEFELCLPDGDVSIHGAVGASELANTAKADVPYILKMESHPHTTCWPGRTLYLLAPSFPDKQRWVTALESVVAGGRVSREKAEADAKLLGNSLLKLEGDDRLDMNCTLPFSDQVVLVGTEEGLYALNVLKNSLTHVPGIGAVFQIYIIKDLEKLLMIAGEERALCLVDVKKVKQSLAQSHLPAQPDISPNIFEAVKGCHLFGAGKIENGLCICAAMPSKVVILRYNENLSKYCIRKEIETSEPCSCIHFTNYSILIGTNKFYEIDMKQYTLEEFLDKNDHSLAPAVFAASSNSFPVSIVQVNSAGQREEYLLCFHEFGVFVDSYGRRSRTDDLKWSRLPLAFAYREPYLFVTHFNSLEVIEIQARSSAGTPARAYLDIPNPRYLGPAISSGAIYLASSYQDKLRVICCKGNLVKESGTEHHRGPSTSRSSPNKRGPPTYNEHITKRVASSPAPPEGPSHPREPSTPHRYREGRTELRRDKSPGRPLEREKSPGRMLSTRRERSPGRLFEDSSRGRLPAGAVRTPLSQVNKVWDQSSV
Sequence of Platelet-derived growth factor receptor alpha (P16234 whole entry): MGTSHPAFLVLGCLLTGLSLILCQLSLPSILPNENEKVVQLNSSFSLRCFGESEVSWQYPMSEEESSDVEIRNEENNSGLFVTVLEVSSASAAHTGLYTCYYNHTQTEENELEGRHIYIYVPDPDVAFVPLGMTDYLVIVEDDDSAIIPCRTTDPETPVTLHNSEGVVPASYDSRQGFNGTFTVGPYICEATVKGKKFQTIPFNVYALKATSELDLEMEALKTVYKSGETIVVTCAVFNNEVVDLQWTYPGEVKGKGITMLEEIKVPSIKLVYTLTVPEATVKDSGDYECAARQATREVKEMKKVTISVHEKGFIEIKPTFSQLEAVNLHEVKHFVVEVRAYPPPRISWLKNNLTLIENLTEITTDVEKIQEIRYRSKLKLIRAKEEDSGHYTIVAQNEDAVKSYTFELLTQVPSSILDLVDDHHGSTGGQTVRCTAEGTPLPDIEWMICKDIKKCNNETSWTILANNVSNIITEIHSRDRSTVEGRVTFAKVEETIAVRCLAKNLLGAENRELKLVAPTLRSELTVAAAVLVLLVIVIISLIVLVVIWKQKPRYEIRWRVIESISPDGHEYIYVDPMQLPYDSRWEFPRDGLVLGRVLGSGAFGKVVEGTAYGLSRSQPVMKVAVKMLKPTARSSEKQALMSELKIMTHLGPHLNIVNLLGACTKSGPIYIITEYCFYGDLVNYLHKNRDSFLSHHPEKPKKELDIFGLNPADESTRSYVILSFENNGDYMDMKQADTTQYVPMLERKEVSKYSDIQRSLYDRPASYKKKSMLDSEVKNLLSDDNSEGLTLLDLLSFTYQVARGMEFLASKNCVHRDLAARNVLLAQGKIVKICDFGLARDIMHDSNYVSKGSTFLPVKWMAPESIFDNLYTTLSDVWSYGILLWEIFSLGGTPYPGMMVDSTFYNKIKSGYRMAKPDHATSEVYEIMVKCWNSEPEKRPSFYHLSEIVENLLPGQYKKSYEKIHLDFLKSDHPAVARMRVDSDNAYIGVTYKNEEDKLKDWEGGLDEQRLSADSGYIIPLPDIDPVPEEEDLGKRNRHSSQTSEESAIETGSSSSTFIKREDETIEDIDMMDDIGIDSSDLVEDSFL
Sequence of Interleukin-1 receptor-associated kinase 1 (Homo sapiens) (P51617 whole entry, looked up): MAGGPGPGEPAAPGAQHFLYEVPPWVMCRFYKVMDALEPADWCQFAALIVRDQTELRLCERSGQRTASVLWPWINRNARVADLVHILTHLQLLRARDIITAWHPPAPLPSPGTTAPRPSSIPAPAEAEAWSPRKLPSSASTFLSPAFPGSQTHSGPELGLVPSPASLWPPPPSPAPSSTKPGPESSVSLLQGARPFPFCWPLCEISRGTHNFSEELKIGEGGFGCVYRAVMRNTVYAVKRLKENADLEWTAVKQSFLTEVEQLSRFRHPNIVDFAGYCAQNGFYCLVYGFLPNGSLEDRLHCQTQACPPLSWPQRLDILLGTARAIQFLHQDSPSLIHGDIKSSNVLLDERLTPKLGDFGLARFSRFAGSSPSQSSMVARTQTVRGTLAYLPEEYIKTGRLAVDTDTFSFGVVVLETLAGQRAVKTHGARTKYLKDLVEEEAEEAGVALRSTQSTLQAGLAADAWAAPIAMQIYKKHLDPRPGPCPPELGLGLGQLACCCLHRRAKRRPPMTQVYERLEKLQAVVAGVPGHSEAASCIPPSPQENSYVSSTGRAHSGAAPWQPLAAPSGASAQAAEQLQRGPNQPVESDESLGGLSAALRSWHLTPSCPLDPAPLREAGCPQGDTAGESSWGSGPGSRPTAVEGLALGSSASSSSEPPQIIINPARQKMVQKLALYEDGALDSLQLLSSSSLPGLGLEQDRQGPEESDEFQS
Sequence of Platelet-derived growth factor receptor alpha (Homo sapiens), P16234 [T674I] (P16234 whole entry T674I): as the sequence (P16234 whole entry) above, with T674I counted along it
Sequence of Platelet-derived growth factor receptor alpha (Homo sapiens), P16234 [V561D] (P16234 whole entry V561D): as the sequence (P16234 whole entry) above, with V561D counted along it
Sequence of Platelet-derived growth factor receptor alpha (Homo sapiens), P16234 [D842V] (P16234 whole entry D842V): as the sequence (P16234 whole entry) above, with D842V counted along it

Structure (SMILES): Cc1cc([C@@H](C)Nc2ccccc2C(=O)O)c2nc(N3CCOCC3)cc(=O)n2c1 [AZD-6482]
% of control [1]: 89%

% of control [2]: 7.9% | % of control [3]: 4.9% | % of control [4]: 19.4% | % of control [5]: 8.82%
Structure (SMILES): Cn1cc(-n2cnc3c(NCc4nc5cc(Cl)c(Cl)cc5[nH]4)nc(N4CCOCC4)nc32)cn1

Structure (SMILES): Cc1cc(F)c(C(=O)Nc2cccc(-c3nncn3C(C)C)n2)cc1-n1cnc(C2CC2)c1
% of control [6]: 97%

Structure (SMILES): COCC(=O)NC/C=C/c1ccc2ncnc(Nc3ccc(Oc4ccc(C)nc4)c(C)c3)c2c1 [CP-724714]
% of control [7]: 100%

Structure (SMILES): CCC(=O)N1CCN(c2ccc(-n3c(=O)ccc4cnc5ccc(-c6cnc7ccccc7c6)cc5c43)cc2C(F)(F)F)CC1
% of control [8]: 39%

Structure (SMILES): CN(C)CCOc1ccc(-c2nc(-c3ccncc3)c(-c3ccc4c(c3)CC/C4=N\O)[nH]2)cc1
% of control [9]: 16% | % of control [10]: 76%
